The nature of data set [1]: mRNA encapsulation by Ribogreen RNA assay. Particulars: LNP: ionizable lipid/DSPC/cholesterol/DMG-PEG2000 about 50/10/38.5/1.5, eGFP mRNA, mRNA/ionizable lipid 1/10. Format: physicochemical. The protocol:
(§1) Lipid based nanoparticles were produced by microfluidic mixing of an mRNA solution in sodium acetate buffer (100 mM, pH 4) and lipid solution in a 2:1 volume ratio at a speed of 16 mL/min using the NanoAssemblr Benchtop (Precision Nanosystems). LNPs were produced at a standard molar ratio ionizable lipid/DSPC (Avanti Polar Lipids)/cholesterol (Sigma)/DMG-PEG2000 (Avanti Polar Lipids) of about 50/10/38.5/1.5. eGFP mRNA was encapsulated in all LNPs as reporter mRNA, at a mRNA/ionizable lipid molar ratio of 1/10. LNPs were dialyzed against TBS (10000 times more TBS volume than LNP volume) using slide-a-lyzer dialysis cassettes (20K MWCO, 3 mL, ThermoFisher). Size, polydispersity and zeta potential were measured with a Zetasizer Nano (Malvern). mRNA encapsulation was measured by standard Ribogreen RNA assay (Invitrogen).

A short description of data set [2]: LNP size and polydispersity measured with a Zetasizer Nano. Format: physicochemical. The conditions noted are these: LNP: ionizable lipid/DSPC/cholesterol/DMG-PEG2000 about 50/10/38.5/1.5, eGFP mRNA, dialyzed against TBS; for size: in nm (unit assumed). Here is the method: as §1
Data set [3] deals with hEPO expression. Briefly: In vivo hEPO expression after IV mRNA LNP injection (hEPO ELISA). The arrangement: species or system BALB/c mice. The conditions noted are these: hEPO mRNA LNPs, 10 μg mRNA intravenous in tail vein, different timepoints, FIGS. 3 A & B. Here is the method:
LNPs were produced at a standard molar ratio ionizable lipid/DSPC/cholesterol/DMG-PEG2000 of about 50/10/38.5/1.5. Human erythropoietin (hEPO) mRNA was encapsulated in all LNPs at an mRNA/ionizable lipid molar ratio of 1/10.
BALB/c mice (female, 6 weeks old mice) were injected intravenously in the tail vein with 200 μl of the respective mRNA LNPs (10 μg mRNA, TBS buffer) or control buffer. Blood was collected from the submandibular vein at different timepoints after which hEPO concentrations were determined using hEPO ELISA assay kit (catalog #BMS2035-2—Thermofisher Scientific), according to the manufacturer's instructions.
A general note: ELISA stands for enzyme-linked immunosorbent assay.

The source of these data is patent US20250326712A1, “IONIZABLE LIPIDS” (eTheRNA immunotherapies NV, priority 2022, published 2025).

As for `CCCCCCCC/C=C\CCCCCCCC(=O)OCC(CNC(=O)OCCSSCCOC(=O)NCCN1CCCCCC1)OC(=O)CCCCCCC/C=C\CCCCCCCC` (stereo not shown) [ETG-23, reference compound], the “% encap” value in data set [1] is on record as 97%. In data set [2], the PDI amounted to 0.082 and the size worked out at 75.97.
Consider `CCCCCC/C=C\COC(=O)CCCCCCCN(CCCCCCCC(=O)OC(CCCCCCCC)CCCCCCCC)C(=O)OCCSSCCOC(=O)NCCN(C)C` [ETG-51], for which the “% encap” value in data set [1] came to 96%. In data set [2], this compound showed a PDI of 0.119 and a size of 111.97.
For `CCCCCC/C=C\COC(=O)CCCCCCCN(CCCCCCCC(=O)OC(CCCCCCCC)CCCCCCCC)C(=O)OCCSSCCOC(=O)NCCN1CCCCCC1` [ETG-52], the “% encap” value in data set [1] was 97%. In data set [2], this compound displayed a PDI of 0.099 and a size of 90.70.
On to `CCCCCCCCCOC(=O)CCCCCCCN(CCCCCCCC(=O)OC(CCCCCCCC)CCCCCCCC)C(=O)OCCSSCCOC(=O)NCCN(C)C` [ETG-53], for which the “% encap” value in data set [1] was 97%. Moreover, the “hEPO expression (serum concentration, area under curve)” value in data set [3] is recorded as “higher hEPO expression compared to ETG-23 control”. Further, in data set [2], the PDI turned out to be 0.085 and the size came to 103.23.
As to `CCCCCCCCCOC(=O)CCCCCCCN(CCCCCCCC(=O)OC(CCCCCCCC)CCCCCCCC)C(=O)OCCSSCCOC(=O)NCCN1CCCCCC1` [ETG-54], in data set [1], the “% encap” value is on record as 98%. In data set [2], the PDI was 0.150 and the size was 90.30.
Taken in the same sequence, the figures for `CCCCCCCCC(CC)OC(=O)CCCCCCCN(CCCCCCCC(=O)OC(CCCCCCCC)CCCCCCCC)C(=O)OCCSSCCOC(=O)NCCN(C)C` (stereo not shown) [ETG-55] were 96%, 0.123 and 93.73.
Consider `CCCCCCCCC(CC)OC(=O)CCCCCCCN(CCCCCCCC(=O)OC(CCCCCCCC)CCCCCCCC)C(=O)OCCSSCCOC(=O)NCCN1CCCCCC1` (stereo not shown) [ETG-56], for which the “% encap” value in data set [1] amounted to 98%. In data set [2], the PDI was 0.120 and the size was 86.26.
Regarding `CCCCCCCCC(CCCCCCCC)OC(=O)CCCCCCCN(CCCCCC(=O)OC(CCCCCCCC)CCCCCCCC)C(=O)OCCSSCCOC(=O)NCCN(C)C` [ETG-57], in data set [1], the “% encap” value is listed as 95%. For the same compound, in data set [2], the PDI came to 0.114 and the size is recorded as 109.10.
Taken in the same sequence, the figures for `CCCCCCCCC(CCCCCCCC)OC(=O)CCCCCCCN(CCCCCC(=O)OC(CCCCCCCC)CCCCCCCC)C(=O)OCCSSCCOC(=O)NCCN1CCCCCC1` [ETG-58] were 98%, 0.086 and 101.50.
